Patent US5589489A, “Cyclic amide derivatives for treating asthma” (Zeneca Limited, priority 1993, dated 1996)
Where a name gives a salt, the structure may show the parent alone.

Target: T1, guinea pig trachea (Cavia porcellus, UniProt Q64077)
T1 construct: functional assay in guinea pig trachea; from tissue; host or cells: guinea pig trachea (male animals), tracheal rings
T1 sequence (Q64077 1-402): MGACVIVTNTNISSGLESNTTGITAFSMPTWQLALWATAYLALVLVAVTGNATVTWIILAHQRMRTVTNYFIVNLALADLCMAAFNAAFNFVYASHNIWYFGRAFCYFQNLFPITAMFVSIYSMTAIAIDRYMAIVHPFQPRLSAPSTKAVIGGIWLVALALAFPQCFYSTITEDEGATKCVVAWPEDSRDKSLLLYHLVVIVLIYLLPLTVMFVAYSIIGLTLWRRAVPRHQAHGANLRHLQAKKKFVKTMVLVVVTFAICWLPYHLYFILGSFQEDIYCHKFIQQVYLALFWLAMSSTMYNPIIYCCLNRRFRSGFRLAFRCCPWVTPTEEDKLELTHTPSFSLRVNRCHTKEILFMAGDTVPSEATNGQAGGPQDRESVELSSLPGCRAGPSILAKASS
Test: Guinea Pig Assay (Test B), functional antagonism of NKA or [β-ala8]-NKA(4-10) in guinea pig trachea
Format: cell-based
Conditions: read-out: pKB (-log molar KB, apparent dissociation constant) (converted)
Procedure: The chosen agonist is refered to as AG throughout the description.
Male guinea pigs are killed by a sharp blow to the back of the head. The trachea are removed, trimmed of excess tissue and divided into two segments. Each segment is suspended as a ring between stainless steel stirrups in water-jacketed (37.5° C.) tissue baths containing a physiological salt solution of the following composition (mM): NaCl, 119; KCl 4.6; CaCl2, 1.8; MgCl2, 0.5; NaH2 PO4, 1; NaHCO3, 25; glucose, 11; thiorphan, 0.001; and indomethacin, 0.005; gassed continuously with 95% O2 -%5 CO2. […] Contractile responses are measured on a Grass polygraph via Grass FT-03 force transducers.
Tissues are challenged repetitively with a single concentration of AG (10 nM) with intervening 30 min periods with washing to allow the tension to return to baseline levels. […] Percent inhibition is determined when a Compound produces a statistically significant (p<0.05) reduction of the contraction and is calculated using the second contractile response as 100%.
Potencies of selected Compounds are evaluated by calculating apparent dissociation constants (KB) for each concentration tested using the standard equation: […]
where dose ratio=antilog[(AG -log molar EC50 without Compound)-(AG -log molar EC50 with Compound)]. The KB values may be converted to the negative logarithms and expressed as -log molar KB (i.e. pKB). […]

CN1C(=O)c2ccccc2[C@H]1[C@@H](CCN1CCC(O)(c2ccccc2)CC1)c1ccc(Cl)c(Cl)c1 (single isomer, unassigned) [Example 4, (-)-(3R/3S)-3-[(1S/1R)-1-(3,4-dichlorophenyl)-3-(4-hydroxy-4-phenylpiperidino)propyl]-2-methyl-2,3-dihydroisoindol-1-one hydrochloride]
Kb: 20 nM
